The results in this text go back to patent US20120220577A1, “GLYCINE B ANTAGONISTS” (Merz Pharma GmbH & Co KgaA, priority 2009, published 2012).

For data set [1], the target named is T1, glycine binding pocket of the NMDA receptor (Rattus norvegicus, UniProt P35439).
T1 construct: For isolation of the cell membranes, the cortices are homogenized; from tissue; host or cells: rat cerebral cortex membranes (male Sprague-Dawley)
The data set can be described thus: [3H]MDL-105,519 displacement studies (rat cortical membranes). To be noted: displacement of 2 nM [3H]-MDL-105,519, rat cortical membranes; read-out: NMDA-MDL 105519-r-CTX - IC50.

The target in data set [2] is NMDA receptor glycine B site (Rattus norvegicus, UniProt P35439). Briefly: Calcium FLIPR studies, rat cortical neurons (NMDA/D-Serine induced intracellular calcium). The data set is classed as cell-based. The arrangement: Primary neurons are prepared from cortices of embryonal rats at day 17 of pregnancy; endogenous in cells; host or cells: primary rat cortical neurons (E17, 11-13 DIV). The settings on record: rat cortical neurons; stimulation with 30 μM NMDA and 1 μM D-Serine; antagonist pre-incubated 10 min; read-out: NMDA-FLIPR-rCTX-NAM - IC50. The protocol:
Antagonistic potencies of the test compounds are functionally evaluated using electrophysiological whole cell patch-clamp recordings and/or fluorometric intracellular Ca^2+-imaging (FLIPR) screens.
Sprague-Dawley rat embryos (E 17) are decapitated and neocortices are dissected, trypsinized and carefully triturated. The cell suspension is plated on poly-D-lysine pre-coated 96-well Plates (Greiner, Frickenhausen, Germany) at a cell density of 55.000 cells/well. The neurons are cultivated in Neurobasal media containing B27-Supplement and […] L-Glutamine (Biochrom) at 37° C. in a humidified atmosphere of 5% CO2/95% air. Medium is exchanged completely at day 4 and to 50% on day 7. At the time of experiments neurons are 11-13 days in vitro.
The increase of intracellular calcium after stimulation with 30 μM NMDA and 1 μM D-Serine is measured using the fluorometric imaging plate reader (FLIPR) and the Calcium-4-Kit (both Molecular Devices, Ismaning, Germany). Prior to addition of agonist or antagonist (5 different concentrations, n=5) the medium is aspirated and cells are washed once before loading with 150 μL of loading buffer (1 h at room temperature), consisting of Ca-4 sensitive dye reconstituted in extracellular bath solution, pH 7.3. Subsequently, plates are transferred to FLIPR to detect increases in intracellular calcium after the addition of agonist, measured as relative fluorescence units (RFU). Antagonists are pre-incubated with the cells for 10 min at room temperature before the addition of the agonist and co-agonist.
The fluorescence signal increase after addition of agonist reflects the increase of intracellular calcium. Inconsistencies in the amount of cells per well are normalised by using the spatial uniformity correction of the FLIPR software (Screenworks, Molecular Devices). The mean of replicated temporal data (n=5) is calculated and used for graphical representation. For the evaluation of the antagonistic potency, the calcium changes in response to different concentrations of antagonist are determined using an area under the curve (AUC) calculation. All responses (RFU-values) are determined as percentage of control (=maximum response at 30 μM NMDA and 1 μM D-Serine). IC50 values are calculated according the four parameter logistic equation using GraFit (Erithacus Software).

Structures are written as SMILES. Counter-ions that a name gives are not always drawn. Where only a bound is given, the exact number is not on record here.

Compound `O=C(COc1cc(C(=O)O)cc2cc(Cl)cc(Cl)c12)Nc1cccc(OCc2nnn[nH]2)c1OCc1nnn[nH]1` [Example 128, 4-{[2,3-Bis-(1H-tetrazol-5-ylmethoxy)-phenylcarbamoyl]-methoxy}-5,7-dichloro-naphthalene-2-carboxylic acid] displayed a melting point of 246 to 247 °C. For the same compound, in data set [1], the IC50 is 1370 nM. On to `O=C(O)COc1ccc(NC(=O)COc2cc(C(=O)O)cc3cc(Cl)cc(Cl)c23)c(OCC(=O)O)c1` [Example 83, 4-[(2,4-Bis-carboxymethoxy-phenylcarbamoyl)-methoxy]-5,7-dichloro-naphthalene-2-carboxylic acid], for which the melting point is > 220 °C (dec.). The IC50 in data set [1] came to 252 nM. In addition, the IC50 in data set [2] came out at 1320 nM. With `NC(=O)c1cccc(NC(=O)COc2cc(C(=O)O)cc3cc(Cl)cc(Cl)c23)c1` [Example 113, 4-[(3-Carbamoyl-phenylcarbamoyl)-methoxy]-5,7-dichloro-naphthalene-2-carboxylic acid], the melting point is greater than 250 °C. Also, the IC50 in data set [1] is 284 nM. As for `O=C(O)COc1ccc(CO)cc1NC(=O)COc1cc(C(=O)O)cc2cc(Cl)cc(Cl)c12` [Example 94, 4-[(2-Carboxymethoxy-5-hydroxymethyl-phenylcarbamoyl)-methoxy]-5,7-dichloro-naphthalene-2-carboxylic acid], the melting point was 185 to 187 °C (dec.). Also, the IC50 in data set [1] came to 150 nM. For the same compound, the IC50 in data set [2] was 1050 nM. Take `N#Cc1ccccc1NC(=O)COc1cc(C(=O)O)cc2cc(Cl)cc(Cl)c12` [Example 82, 5,7-Dichloro-4-[(2-cyano-phenylcarbamoyl)-methoxy]-naphthalene-2-carboxylic acid]: the melting point was greater than 250 °C. For the same compound, the IC50 in data set [1] is 440 nM. Take `NCc1cc(OCC(=O)O)ccc1NC(=O)COc1cc(C(=O)O)cc2cc(Cl)cc(Cl)c12` (as salt: trifluoroacetate) [Example 97, 4-[(2-Aminomethyl-4-carboxymethoxy-phenylcarbamoyl)-methoxy]-5,7-dichloro-naphthalene-2-carboxylic acid]: the melting point is greater than 169 °C.

Regarding `CNC(=O)COc1cc(CN)ccc1NC(=O)COc1cc(C(=O)O)cc2cc(Cl)cc(Cl)c12` (as salt: hydrochloride) [Example 116, 4-[(4-Aminomethyl-2-methylcarbamoylmethoxy-phenylcarbamoyl)-methoxy]-5,7-dichloro-naphthalene-2-carboxylic acid], the melting point is 233 to 235 °C.

In the case of `N#CCc1ccccc1NC(=O)COc1cc(C(=O)O)cc2cc(Cl)cc(Cl)c12` [Example 137, 5,7-Dichloro-4-[(2-cyanomethyl-phenylcarbamoyl)-methoxy]-naphthalene-2-carboxylic acid], the melting point fell in the range of 246 to 247 °C.

In turn, `Cc1cnc(NC(=O)COc2cc(C(=O)O)cc3cc(Cl)cc(Cl)c23)s1` [Example 133, 5,7-Dichloro-4-[(5-methyl-thiazol-2-ylcarbamoyl)-methoxy]-naphthalene-2-carboxylic acid] returned a melting point greater than 250 °C. Consider `O=C(COc1cc(C(=O)O)cc2cc(Cl)cc(Cl)c12)NCc1ccccn1` [Example 103, 5,7-Dichloro-4-{[(pyridin-2-ylmethyl)-carbamoyl]-methoxy}-naphthalene-2-carboxylic acid], for which the melting point is > 240 °C (dec.). In data set [1], the half-maximal inhibitory concentration (IC50) is 430 nM. Moreover, the IC50 in data set [2] is 8550 nM. Compound `COCC(Oc1cc(C(=O)O)cc2cc(Cl)cc(Cl)c12)C(=O)Nc1ccccc1OCC(=O)O` (stereo not drawn) [Example 131, 4-[1-(2-Carboxymethoxy-phenylcarbamoyl)-2-methoxy-ethoxy]-5,7-dichloro-naphthalene-2-carboxylic acid] returned a melting point of 224 to 225 °C. `O=C(O)COc1cc(CO)ccc1NC(=O)COc1cc(C(=O)O)cc2cc(Cl)cc(Cl)c12` [Example 122, 4-[(2-Carboxymethoxy-4-hydroxymethyl-phenylcarbamoyl)-methoxy]-5,7-dichloro-naphthalene-2-carboxylic acid] yielded a melting point of 244 to 245 °C.

In the case of `O=C(COc1cc(C(=O)O)cc2cc(Cl)cc(Cl)c12)NCc1ccc(OCc2nnn[nH]2)cc1` [Example 126, 5,7-Dichloro-4-{[4-(1H-tetrazol-5-ylmethoxy)-benzylcarbamoyl]-methoxy}-naphthalene-2-carboxylic acid], the melting point is > 236 °C (dec.). With `O=C(COc1cc(C(=O)O)cc2cc(Cl)cc(Cl)c12)Nc1ccccc1-c1nnn[nH]1` [Example 85, 5,7-Dichloro-4-{[2-(1H-tetrazol-5-yl)-phenylcarbamoyl]-methoxy}-naphthalene-2-carboxylic acid], the melting point lay within 247 to 248 °C. The IC50 in data set [1] stood at 233 nM. In addition, the IC50 in data set [2] amounted to 930 nM. Taken in the same sequence, the figures for `O=C(O)CCc1cccc(NC(=O)COc2cc(C(=O)O)cc3cc(Cl)cc(Cl)c23)c1` [Example 96, 4-{[3-(2-Carboxy-ethyl)-phenylcarbamoyl]-methoxy}-5,7-dichloro-naphthalene-2-carboxylic acid] were > 230 °C (dec.), 393 nM and 5820 nM. Turning to `Cc1nc(NC(=O)COc2cc(C(=O)O)cc3cc(Cl)cc(Cl)c23)sc1C` [Example 135, 5,7-Dichloro-4-[(4,5-dimethyl-thiazol-2-ylcarbamoyl)-methoxy]-naphthalene-2-carboxylic acid], the melting point was greater than 250 °C. Turning to `O=C(COc1cc(C(=O)O)cc2cc(Cl)cc(Cl)c12)NCc1cccc(Cc2nnn[nH]2)c1` [Example 119, 5,7-Dichloro-4-{[3-(1H-tetrazol-5-ylmethyl)-benzylcarbamoyl]-methoxy}-naphthalene-2-carboxylic acid], the melting point was 243 to 244 °C.
